# Test results from patent publication US20230293487A1, “ANTI-INFLAMMATORY COMPOSITION COMPRISING BENZOFURAN-BASED N-ACYLHYDRAZONE DERIVATIVES” (KOREA RESEARCH INSTITUTE OF BIOSCIENCE AND BIOTECHNOLOGY, priority 2020, published 2023).
# Key:
# NF-κB [1] = experiment: NF-κB luciferase reporter assay, TNF-α induced (Test Example 1); type: cell-based; conditions: Homo sapiens; HEK293, NF-κB luciferase vector, 10 ng/ml TNF-α, 1 uM compound; FIG. 1; read-out: NF-κB activity inhibited (reporter activity)
# Description: The cultured human-derived HEK293 cell line was transfected with the NF-κB luciferase (reporter) vector, and treated with 10 ng/ml of TNF-α to induce activation of the NF-κB signaling pathway. In addition, during the above process, 1 uM of each of 9 kinds of compounds represented by [Chemical Formula 1] was treated to measure the inhibitory effect of the NF-κB-mediated inflammatory response regulatory pathway. Specifically, the relative expression level of NF-κB was confirmed.
# NF-κB [2] = experiment: NF-κB luciferase assay, luminometer (Test Example 3); type: cell-based, human; conditions: HEK293, 1 uM compound, 10 ng/ml TNF-α; FIG. 3
# Description: HEK293 cell line, a human-derived embryonic kidney cell line, was cultured, transfected with NF-κB luciferase vector, treated with 1 uM of the compound, and then treated with 10 ng/ml of TNF-α to induce the NF-κB pathway. Luciferase assay method was performed to quantitatively measure the effect on NF-κB gene expression using a luminometer.
# [3] = test system: mice (oxazolone-induced skin inflammation); experiment: Oxazolone-induced skin inflammation in mouse ears (Test Example 4): naked eye, H&E staining, immune cell count; type: in vivo; conditions: compound 20 μl at 500 nM, 5 applications; for number of inflammatory immune cells in skin: counted from H&E pictures, FIG. 6; for skin condition of ears confirmed with naked eye / thickness of the entire skin and epithelium (H&E staining): oxazolone on mouse ears; for skin condition of ears confirmed with naked eye: FIG. 4; for thickness of the entire skin and epithelium (H&E staining): FIG. 5
# Description: 3% Oxazolone (150 μl) was applied to the abdominal skin of 6-week-old mice to induce an immune response, and 0.5% diluted oxazolone (20 μl) was applied to the ears of mice a total of 5 times at intervals of one day to induce an inflammatory response. After 30 minutes of oxazolone application, Example 4 (CAP-1042) or Example 12 (CAP-1047) was applied a total of 5 times in an amount of 20 μl each at a concentration of 500 nM each.
# The number of mice in each experimental group was maintained at 10 or more, and the experiment was repeated twice in total.
# Specifically, after H&E staining (FIG. 5), photographs of at least 10 different parts of each sample were taken evenly under a microscope. Then, the number of inflammatory immune cells stained in dark red was directly counted from the pictures taken, and the average value was calculated.
# [4] = test system: mice (LPS-induced sepsis); experiment: LPS-induced sepsis (cytokine storm-like) model (Test Example 7); type: in vivo; conditions: LPS intraperitoneal, drug intravenous; FIG. 11B
# Description: Since there were no disease model animals leading to death from a cytokine storm caused by coronaviruses, particularly Sars-Cov2, the present inventors used an acute sepsis model in which an acute inflammatory response is induced to cause the cytokine storm problem and confirmed inhibition of the cytokine storm, the possibility of treating severe acute respiratory syndrome coronavirus 2 infection disease and the possibility of treating sepsis.
# An experiment was performed by treating LPS on an animal model (cytokine storm-like model) of sepsis (death). Mice were intraperitoneally administered with LPS for induction of sepsis and injected intravenously with the drug (Example 4), and then blood was collected at 3, 6, and 12 hours. The survival rate was confirmed for 48 hours to observe mortality due to sepsis.
# p100 protein = experiment: Western blotting of NF-κB non-canonical pathway, induced with LIGHT (Test Example 5); type: cell-based; conditions: LIGHT induction, own compound used = Example 4 (1042), b448, FIG. 8
# Text: (§1) The NF-κB signaling pathway is largely divided into canonical and non-canonical pathways. In the canonical pathway, when an inflammatory response is induced by treatment with TNF-α, the amount of P-p65 protein, which is a phosphorylated product of p65 protein, increases and migrates into the nucleus, inducing an inflammatory response. In the non-canonical pathway, when an inflammatory response is induced with a LIGHT compound that activates the non-canonical NF-κB pathway, the p100 protein is converted into p52 protein through processing and migrates into the nucleus to induce an inflammatory response. […] Specifically, in order to confirm whether the activation of NF-κB signaling pathways (canonical and non-canonical pathways) is regulated, the regulation of phosphorylated p65 and p100 proteins, which are major signal regulating molecules, was confirmed using Western blotting. In the present experiment, the compound of Example 4 (1042) was used as the compound according to the present disclosure.
# P-p65 protein = experiment: Western blotting of NF-κB canonical pathway, induced with TNF-α (Test Example 5); type: cell-based; conditions: TNFα induction, own compound used = Example 4 (1042), b448, FIG. 8
# Text: as §1
Molecule,expression amount of the NF-κB gene (luciferase) (NF-κB [2]),inhibition at 1 µM (NF-κB [1]) [%],also measured
"Cc1ccc2oc(C(=O)N/N=C/c3c(Cl)[nH]c4ccccc34)cc2c1 [Example 1, (E)-N′-[(2-chloro-1H-indol-3-yl)methylene]-5-methylbenzofuran-2-carbohydrazide]",,≥ 50,
"CCOCCn1c(Cl)c(/C=N/NC(=O)c2cc3cc(C)ccc3o2)c2ccccc21 [Example 4, (E)-N′-[(2-chloro-1-(2-ethoxyethyl)-1H-indol-3-yl]methylene}-5-methylbenzofuran-2-carbohydrazide]",significantly decreased,≥ 50,number of inflammatory immune cells in skin [3]: reduced the number of immune cells induced by the inflammatory reaction to the extent very similar to that of the normal case treated with ethanol; skin condition of ears confirmed with naked eye [3]: skin conditions very similar to those of normal animals treated with ethanol; thickness of the entire skin and epithelium (H&E staining) [3]: reduced to the extent very similar to that of the normal skin treated with ethanol; mortality due to sepsis (survival rate after 48 hours) [4]: significantly reduced mortality due to sepsis
"CCOCCn1c(Cl)c(/C=N/NC(=O)c2cc3cc(C)ccc3o2)c2cc(OC)ccc21 [Example 8, (E)-N′-[(2-chloro-1-(2-ethoxyethyl)-5-methoxy-1H-indol-3-yl]methylene}-5-methylbenzofuran-2-carbohydrazide]",,≥ 50,
"CCOCCn1c(Cl)c(/C=N/NC(=O)c2cc3cc(C)ccc3o2)c2ccc(OC)cc21 [Example 9, (E)-N′-[(2-chloro-1-(2-ethoxyethyl)-6-methoxy-1H-indol-3-yl]methylene}-5-methylbenzofuran-2-carbohydrazide]",,≥ 50,
"CCOC(=O)Cn1c(C)c(/C=N/NC(=O)c2cc3cc(C)ccc3o2)c2ccccc21 [Example 21, ethyl (E)-2-(2-methyl-3-((2-(5-methylbenzofuran-2-carbonyl)hydrazinylidene)methyl)-1H-indol-1-yl)acetate]",,,melting point: 186 °C
CCOC(=O)Cn1c(C)c(/C=N/NC(=O)c2cc3cc(Cl)ccc3o2)c2ccccc21 [Example 22],,,melting point: 214 °C
"COC(=O)Cn1c(Cl)c(/C=N/NC(=O)c2cc3cc(C)ccc3o2)c2ccccc21 [Example 23, methyl (E)-2-(2-chloro-3-((2-(5-methylbenzofuran-2-carbonyl)hydrazinylidene)methyl)-1H-indol-1-yl)acetate]",,≥ 50,melting point: 212 °C
NC(=O)Nc1sc(-c2ccc(F)cc2)cc1C(N)=O [TPCA1],,,inhibition of non-canonical NF-κB pathway (p100 to p52 processing) (p100 protein): not on the non-canonical pathway; inhibition of canonical NF-κB pathway (P-p65) (P-p65 protein): acts on the canonical pathway
(E)-N′-[(2-chloro-1-(2-methoxyethyl)-1H-indol-3-yl]methylene}-5-methylbenzofuran-2-carbohydrazide [Example 7],,,number of inflammatory immune cells in skin [3]: reduced the number of immune cells induced by the inflammatory reaction to the extent very similar to that of the normal case treated with ethanol

# Second part, led by results:
expression amount of the NF-κB gene (luciferase) (NF-κB [2]),Molecule,inhibition at 1 µM (NF-κB [1]) [%],also measured
significantly decreased,"CCOCCn1c(Cl)c(/C=N/NC(=O)c2cc3cc(C)ccc3o2)c2cc(F)ccc21 [Example 10, (E)-N′-[(2-chloro-1-(2-ethoxyethyl)-5-fluoro-1H-indol-3-yl]methylene}-5-methylbenzofuran-2-carbohydrazide]",≥ 50,
significantly decreased,"CCOCCn1c(Cl)c(/C=N/NC(=O)c2cc3cc(C)ccc3o2)c2cc(Cl)ccc21 [Example 11, (E)-N′-[(2,5-dichloro-1-(2-ethoxyethyl)-1H-indol-3-yl]methylene}-5-methylbenzofuran-2-carbohydrazide]",≥ 50,
significantly decreased,"CCOCCn1c(Cl)c(/C=N/NC(=O)c2cc3cc(C)ccc3o2)c2cc(OC(F)(F)F)ccc21 [Example 12, (E)-N′-[(2-chloro-1-(2-ethoxyethyl)-5-(trifluoromethoxy)-1H-indol-3-yl]methylene}-5-methylbenzofuran-2-carbohydrazide]",≥ 50,skin condition of ears confirmed with naked eye [3]: skin conditions very similar to those of normal animals treated with ethanol; thickness of the entire skin and epithelium (H&E staining) [3]: reduced to the extent very similar to that of the normal skin treated with ethanol
significantly decreased,"CCOCCn1c(Cl)c(/C=N/NC(=O)c2cc3cc(C)ccc3o2)c2cc(C)ccc21 [Example 13, (E)-N′-[(2-chloro-1-(2-ethoxyethyl)-5-methyl-1H-indol-3-yl]methylene}-5-methylbenzofuran-2-carbohydrazide]",≥ 50,
